Consider one molecule from paper PMC5762315, “Inhibition of polo-like kinase 4 (PLK4): a new therapeutic option for rhabdoid tumors and pediatric medulloblastoma” (Oncotarget, 2017).

Where “and” joins values, the source holds several entries; their conditions need not be identical. Identical values can stand only once.

Experiment in all cases: biochemical
Holding throughout (type): biochemical

Assay [1] addresses various kinases (Homo sapiens, UniProt O43293). The following applies: DAPK3 (ZIPK).
Assay [2] concerns the target various kinases (Homo sapiens, UniProt P00533). The following applies: EGFR (ErbB1).
In assay [3] the target is various kinases (Homo sapiens, UniProt P00533, G719S). The following applies: EGFR (ErbB1) G719S.
The target in assay [4] is various kinases (Homo sapiens, UniProt P09769). The note with it: FGR.
Assay [5] deals with various kinases (Homo sapiens, UniProt P10721, V559D/V654A). The note with it: KIT V559D V654A.
Assay [6] has as its target various kinases (Homo sapiens, UniProt P16234, T674I). The note with it: PDGFRA T674I.
The target of assay [7] is various kinases (Homo sapiens, UniProt P22607, K650E). The note with it: FGFR3 K650E.
Assay [8] addresses various kinases (Homo sapiens, UniProt P24941). The note with it: CDK2/cyclin A.
Assay [9] concerns the target various kinases (Homo sapiens, UniProt P34947). The following applies: GRK5.
The target in assay [10] is various kinases (Homo sapiens, UniProt P35916). The note with it: FLT4 (VEGFR3).
Assay [11] addresses various kinases (Homo sapiens, UniProt P36888, D835Y). The following applies: FLT3 D835Y.
The target of assay [12] is various kinases (Homo sapiens, UniProt P49761). The note with it: CLK3.
Assay [13] addresses various kinases (Homo sapiens, UniProt Q00535).
Assay [14] deals with T1, various kinases (Homo sapiens, UniProt Q02156).
T1 sequence (Q02156 1-737): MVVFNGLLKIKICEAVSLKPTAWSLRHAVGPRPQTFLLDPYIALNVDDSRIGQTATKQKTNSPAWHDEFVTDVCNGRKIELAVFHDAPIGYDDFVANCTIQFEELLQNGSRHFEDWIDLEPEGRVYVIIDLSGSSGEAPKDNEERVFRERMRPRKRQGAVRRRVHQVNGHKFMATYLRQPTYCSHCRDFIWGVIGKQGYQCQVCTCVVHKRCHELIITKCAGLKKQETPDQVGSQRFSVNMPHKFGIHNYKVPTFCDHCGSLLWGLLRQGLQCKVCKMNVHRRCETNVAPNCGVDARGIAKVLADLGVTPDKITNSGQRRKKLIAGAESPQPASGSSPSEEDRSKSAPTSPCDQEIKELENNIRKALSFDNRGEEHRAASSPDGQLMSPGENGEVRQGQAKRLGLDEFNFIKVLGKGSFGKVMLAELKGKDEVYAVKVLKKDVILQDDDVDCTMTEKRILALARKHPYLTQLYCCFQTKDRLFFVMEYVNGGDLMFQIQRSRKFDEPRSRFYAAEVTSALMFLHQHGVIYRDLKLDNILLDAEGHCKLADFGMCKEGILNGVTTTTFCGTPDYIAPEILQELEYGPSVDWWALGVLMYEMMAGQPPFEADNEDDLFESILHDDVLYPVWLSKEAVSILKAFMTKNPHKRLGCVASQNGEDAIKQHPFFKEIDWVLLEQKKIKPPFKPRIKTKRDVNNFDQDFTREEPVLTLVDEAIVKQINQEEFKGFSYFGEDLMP
The following applies: kinase PRKCE (PKC epsilon); ZLYTE.

For assay [15], the target named is T2, various kinases (Homo sapiens, UniProt Q13188).
T2 sequence (Q13188 1-491): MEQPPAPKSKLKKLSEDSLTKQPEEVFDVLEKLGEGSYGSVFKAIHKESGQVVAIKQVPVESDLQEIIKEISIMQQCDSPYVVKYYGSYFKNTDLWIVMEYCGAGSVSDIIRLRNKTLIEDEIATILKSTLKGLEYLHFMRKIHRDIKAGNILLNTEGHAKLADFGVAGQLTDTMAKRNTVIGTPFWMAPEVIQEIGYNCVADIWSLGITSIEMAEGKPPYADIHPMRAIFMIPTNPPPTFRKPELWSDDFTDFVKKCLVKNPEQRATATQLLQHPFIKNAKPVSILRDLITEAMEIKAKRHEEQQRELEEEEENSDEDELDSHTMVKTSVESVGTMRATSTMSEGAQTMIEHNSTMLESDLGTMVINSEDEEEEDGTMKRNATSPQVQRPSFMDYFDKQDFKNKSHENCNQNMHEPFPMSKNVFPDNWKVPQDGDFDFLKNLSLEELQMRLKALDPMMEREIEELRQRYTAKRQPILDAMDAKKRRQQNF
The note with it: kinase STK3 (MST2); ZLYTE.

The target of assay [16] is various kinases (Homo sapiens, UniProt Q8IU85). The following applies: CAMK1D (CaMKI delta).
The target in assay [17] is various kinases (Homo sapiens, UniProt Q8N752). The note with it: CSNK1A1L.
In assay [18] the target is various kinases (Homo sapiens, UniProt Q96L34). The following applies: MARK4.

Sequence of various kinases (Homo sapiens, UniProt Q00535) (Q00535 whole entry): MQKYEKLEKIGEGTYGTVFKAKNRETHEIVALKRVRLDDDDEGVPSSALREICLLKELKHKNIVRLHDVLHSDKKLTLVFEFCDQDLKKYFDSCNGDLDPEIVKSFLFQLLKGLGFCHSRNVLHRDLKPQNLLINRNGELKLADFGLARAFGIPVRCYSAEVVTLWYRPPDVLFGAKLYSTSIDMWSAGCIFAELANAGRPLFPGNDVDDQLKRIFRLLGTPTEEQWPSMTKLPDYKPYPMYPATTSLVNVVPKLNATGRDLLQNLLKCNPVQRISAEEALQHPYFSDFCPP
Sequence of various kinases (Homo sapiens, UniProt P16234, T674I) (P16234 24-1089 T674I): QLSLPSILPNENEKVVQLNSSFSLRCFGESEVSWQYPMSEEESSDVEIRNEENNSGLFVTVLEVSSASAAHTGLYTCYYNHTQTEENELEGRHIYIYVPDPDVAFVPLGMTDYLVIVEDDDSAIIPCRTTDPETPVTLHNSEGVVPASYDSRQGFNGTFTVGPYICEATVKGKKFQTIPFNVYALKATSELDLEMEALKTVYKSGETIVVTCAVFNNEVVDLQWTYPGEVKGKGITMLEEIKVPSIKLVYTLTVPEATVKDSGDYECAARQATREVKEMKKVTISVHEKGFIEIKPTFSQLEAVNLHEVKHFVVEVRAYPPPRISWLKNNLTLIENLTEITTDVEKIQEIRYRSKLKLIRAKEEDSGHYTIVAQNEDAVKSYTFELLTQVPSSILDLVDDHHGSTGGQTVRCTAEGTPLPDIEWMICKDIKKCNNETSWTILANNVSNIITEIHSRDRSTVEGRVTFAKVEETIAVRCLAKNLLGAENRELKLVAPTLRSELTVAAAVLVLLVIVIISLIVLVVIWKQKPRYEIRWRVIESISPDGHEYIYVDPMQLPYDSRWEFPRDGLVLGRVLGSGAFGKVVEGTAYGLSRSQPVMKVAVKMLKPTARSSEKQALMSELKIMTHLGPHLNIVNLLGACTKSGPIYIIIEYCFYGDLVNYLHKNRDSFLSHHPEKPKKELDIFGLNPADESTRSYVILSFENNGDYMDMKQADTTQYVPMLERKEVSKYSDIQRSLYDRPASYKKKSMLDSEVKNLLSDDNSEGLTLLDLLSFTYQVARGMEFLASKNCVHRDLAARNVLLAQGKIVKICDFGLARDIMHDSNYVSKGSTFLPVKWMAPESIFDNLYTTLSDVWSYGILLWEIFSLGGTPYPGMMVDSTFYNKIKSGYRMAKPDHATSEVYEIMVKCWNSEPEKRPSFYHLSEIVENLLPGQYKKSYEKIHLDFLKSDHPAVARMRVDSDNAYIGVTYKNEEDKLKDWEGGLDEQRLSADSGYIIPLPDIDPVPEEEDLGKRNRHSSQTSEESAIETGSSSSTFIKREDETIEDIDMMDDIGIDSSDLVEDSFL
Sequence of various kinases (Homo sapiens, UniProt Q8N752) (Q8N752 whole entry): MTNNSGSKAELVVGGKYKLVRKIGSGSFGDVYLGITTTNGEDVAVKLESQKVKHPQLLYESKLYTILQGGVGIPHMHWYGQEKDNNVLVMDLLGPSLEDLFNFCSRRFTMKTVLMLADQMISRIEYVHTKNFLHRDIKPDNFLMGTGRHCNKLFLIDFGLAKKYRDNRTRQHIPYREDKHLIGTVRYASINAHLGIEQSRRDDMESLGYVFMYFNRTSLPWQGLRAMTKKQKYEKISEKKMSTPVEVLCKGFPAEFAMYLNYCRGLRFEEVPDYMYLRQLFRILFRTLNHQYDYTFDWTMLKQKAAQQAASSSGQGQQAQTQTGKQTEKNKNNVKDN
Sequence of various kinases (Homo sapiens, UniProt P35916) (P35916 25-1363): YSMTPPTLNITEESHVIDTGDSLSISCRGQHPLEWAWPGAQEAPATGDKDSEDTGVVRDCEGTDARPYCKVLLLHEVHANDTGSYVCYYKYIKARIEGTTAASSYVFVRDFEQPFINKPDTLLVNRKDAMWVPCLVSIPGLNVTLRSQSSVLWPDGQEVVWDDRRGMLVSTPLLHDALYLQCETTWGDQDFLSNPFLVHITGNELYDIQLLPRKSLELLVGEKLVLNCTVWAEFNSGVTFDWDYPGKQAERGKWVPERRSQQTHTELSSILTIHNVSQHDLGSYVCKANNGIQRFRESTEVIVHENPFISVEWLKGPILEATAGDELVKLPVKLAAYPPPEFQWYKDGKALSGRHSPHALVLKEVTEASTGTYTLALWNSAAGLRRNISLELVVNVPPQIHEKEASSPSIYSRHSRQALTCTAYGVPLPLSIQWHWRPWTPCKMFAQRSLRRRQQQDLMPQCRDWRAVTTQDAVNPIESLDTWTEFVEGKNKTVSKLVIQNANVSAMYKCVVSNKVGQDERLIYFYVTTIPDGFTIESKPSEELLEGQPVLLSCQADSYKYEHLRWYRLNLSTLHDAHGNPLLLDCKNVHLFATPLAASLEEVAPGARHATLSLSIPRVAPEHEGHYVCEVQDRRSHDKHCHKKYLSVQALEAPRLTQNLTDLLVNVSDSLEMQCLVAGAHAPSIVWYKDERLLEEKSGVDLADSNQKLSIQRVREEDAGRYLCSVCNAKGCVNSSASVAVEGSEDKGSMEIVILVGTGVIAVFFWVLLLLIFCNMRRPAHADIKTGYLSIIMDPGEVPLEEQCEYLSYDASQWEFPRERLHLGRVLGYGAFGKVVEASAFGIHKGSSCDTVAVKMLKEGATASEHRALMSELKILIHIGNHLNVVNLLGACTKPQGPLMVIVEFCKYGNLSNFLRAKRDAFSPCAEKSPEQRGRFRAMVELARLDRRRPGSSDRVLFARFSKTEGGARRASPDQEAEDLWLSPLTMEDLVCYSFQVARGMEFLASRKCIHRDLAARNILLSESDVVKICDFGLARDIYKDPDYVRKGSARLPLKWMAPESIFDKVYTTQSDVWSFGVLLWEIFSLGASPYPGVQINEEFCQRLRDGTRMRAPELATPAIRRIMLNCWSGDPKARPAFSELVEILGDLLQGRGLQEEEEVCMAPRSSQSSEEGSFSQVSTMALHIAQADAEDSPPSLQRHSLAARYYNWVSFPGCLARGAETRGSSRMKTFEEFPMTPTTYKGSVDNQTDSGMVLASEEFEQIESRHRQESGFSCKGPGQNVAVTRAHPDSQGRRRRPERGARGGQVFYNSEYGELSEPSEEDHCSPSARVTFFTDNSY
Sequence of various kinases (Homo sapiens, UniProt Q8IU85) (Q8IU85 whole entry): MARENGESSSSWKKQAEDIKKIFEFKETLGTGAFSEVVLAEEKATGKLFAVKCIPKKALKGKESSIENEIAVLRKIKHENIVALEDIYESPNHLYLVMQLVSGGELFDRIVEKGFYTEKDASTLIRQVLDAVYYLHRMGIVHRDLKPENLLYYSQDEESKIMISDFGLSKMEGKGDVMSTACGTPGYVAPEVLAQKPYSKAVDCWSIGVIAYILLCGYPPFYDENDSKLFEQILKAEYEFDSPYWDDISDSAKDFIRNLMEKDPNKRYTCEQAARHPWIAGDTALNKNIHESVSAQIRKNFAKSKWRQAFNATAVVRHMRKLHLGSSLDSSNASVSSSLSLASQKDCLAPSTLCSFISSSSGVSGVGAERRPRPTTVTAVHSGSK
Sequence of various kinases (Homo sapiens, UniProt O43293) (O43293 whole entry): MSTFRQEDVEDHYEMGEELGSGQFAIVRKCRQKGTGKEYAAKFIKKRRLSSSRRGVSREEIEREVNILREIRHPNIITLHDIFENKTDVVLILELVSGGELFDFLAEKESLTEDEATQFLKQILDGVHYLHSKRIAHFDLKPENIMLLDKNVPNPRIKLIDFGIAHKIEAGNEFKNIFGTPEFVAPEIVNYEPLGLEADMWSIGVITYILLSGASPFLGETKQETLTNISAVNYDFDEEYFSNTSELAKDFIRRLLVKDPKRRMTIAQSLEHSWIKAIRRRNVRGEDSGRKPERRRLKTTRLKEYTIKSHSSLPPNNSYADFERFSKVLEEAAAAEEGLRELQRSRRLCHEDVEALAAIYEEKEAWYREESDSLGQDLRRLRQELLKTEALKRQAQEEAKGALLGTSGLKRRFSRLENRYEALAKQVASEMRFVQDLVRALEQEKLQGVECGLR
Sequence of various kinases (Homo sapiens, UniProt P00533) (P00533 25-1210): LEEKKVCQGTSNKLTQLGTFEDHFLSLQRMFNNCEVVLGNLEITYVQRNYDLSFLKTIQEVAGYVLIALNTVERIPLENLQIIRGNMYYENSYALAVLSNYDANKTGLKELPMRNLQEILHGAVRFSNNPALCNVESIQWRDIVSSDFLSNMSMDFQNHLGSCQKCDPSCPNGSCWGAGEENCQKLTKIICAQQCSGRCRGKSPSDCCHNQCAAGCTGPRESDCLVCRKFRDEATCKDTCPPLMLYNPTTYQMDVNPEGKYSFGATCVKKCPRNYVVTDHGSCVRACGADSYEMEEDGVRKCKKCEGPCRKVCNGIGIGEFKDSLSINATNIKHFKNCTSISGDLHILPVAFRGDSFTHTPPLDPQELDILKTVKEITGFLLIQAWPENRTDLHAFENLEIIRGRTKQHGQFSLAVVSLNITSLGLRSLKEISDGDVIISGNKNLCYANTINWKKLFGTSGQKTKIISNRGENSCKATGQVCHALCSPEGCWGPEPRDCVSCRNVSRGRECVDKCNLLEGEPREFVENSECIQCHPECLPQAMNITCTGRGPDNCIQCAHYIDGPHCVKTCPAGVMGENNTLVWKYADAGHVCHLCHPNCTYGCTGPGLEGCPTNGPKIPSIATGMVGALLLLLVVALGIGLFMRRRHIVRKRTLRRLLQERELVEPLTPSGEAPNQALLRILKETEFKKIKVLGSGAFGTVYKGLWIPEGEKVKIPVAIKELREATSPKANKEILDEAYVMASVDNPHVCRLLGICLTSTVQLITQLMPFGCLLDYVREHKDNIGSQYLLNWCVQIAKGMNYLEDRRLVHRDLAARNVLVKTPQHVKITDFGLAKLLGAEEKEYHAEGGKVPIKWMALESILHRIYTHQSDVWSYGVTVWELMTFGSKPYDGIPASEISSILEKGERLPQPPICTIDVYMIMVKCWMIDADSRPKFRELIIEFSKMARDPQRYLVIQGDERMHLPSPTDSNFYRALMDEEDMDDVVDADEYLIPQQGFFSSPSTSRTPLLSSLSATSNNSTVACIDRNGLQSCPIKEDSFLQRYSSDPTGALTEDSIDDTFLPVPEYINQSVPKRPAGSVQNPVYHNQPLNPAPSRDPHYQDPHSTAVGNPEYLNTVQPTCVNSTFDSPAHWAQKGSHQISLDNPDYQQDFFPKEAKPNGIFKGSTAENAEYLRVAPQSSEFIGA

For orientation: % Inhibition means the relative decrease from the control value, in per cent. Regarding `COc1ccc2c(c1)[C@]1(C[C@H]1c1ccc3c(/C=C/c4ccc(CN5C[C@@H](C)O[C@@H](C)C5)cc4)n[nH]c3c1)C(=O)N2` [CFI-400945], the “% Inhibition” value on various kinases [1] was 1% and 2%; on various kinases [2] it was 1% and 7%; on various kinases [3] it was 5%; at various kinases [4], 28% and 26%; on various kinases [5] it was 5% and 6%; on various kinases [6], 1% and 2%. The “% Inhibition” value on various kinases [7] was 38% and 44%; at various kinases [8] it was 7% and 2%; at various kinases [9] it was 5% and 3%; on various kinases [10] it was 6% and 8%; at various kinases [11], 27% and 29%; at various kinases [12], 2% and 0%. The “% Inhibition” value is 6% and 8% on various kinases [13] (CDK5/p25); 2% and 3% on various kinases [13] (CDK5/p35); -5% and 0% on various kinases [16]; 2% and 1% on various kinases [17]; 8% and 3% on various kinases [18]. For the same molecule, the “% Inhibition Average” value is recorded as -2% at various kinases [14] and 13% on various kinases [15]. The “% Inhibition Duplicate #1” value at various kinases [14] is given as -5%; at various kinases [15], 15%. Further, the “% Inhibition Duplicate #2” value came out at 1% at various kinases [14] and 12% on various kinases [15].
